Experimental data reported in article PMC7377239, “Cardiovascular Effects of Polychlorinated Biphenyls and Their Major Metabolites” (Environmental Health Perspectives, 2020).
Read-outs that look alike come from different tables or passages of the source.

Key:
[1] = system: iCell endothelial cells (human iPSC-derived ECs); experiment: Tube formation (tubulogenesis) assay in iCell endothelial cells, 18 h; assay type: cell-based; conditions: Homo sapiens, Endothelial cell, iPSC-EC; for activity at 0.1 µM: 0.10 µM; for minimal effective concentration: 100.00 = highest concentration tested
In short: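 iCell ECs (passages 1–5) seeded 7,500 cells/well on reduced-growth-factor Geltrex in starvation medium, exposed overnight at 37°C to compounds in triplicate concentration–response (0.5% DMSO vehicle). Calcein AM staining, 4× imaging, angiogenesis image analysis; readouts normalized to vehicle, four-parameter logistic fit, POD at 1 SD of vehicle; 100 μM assigned NOAEL if no response.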

[2] = system: iCell endothelial cells (human iPSC-derived ECs); experiment: High-content imaging cytotoxicity in iCell endothelial cells, 24 h; assay type: cell-based; conditions: Homo sapiens, Endothelial cell, iPSC-EC; for viability at 0.1 µM / activity at 0.1 µM: 0.10 µM; for minimal effective concentration: 100.00 = highest concentration tested
In short: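 Human iPSC-derived endothelial cells (passages 1–5) were grown to a fibronectin-coated monolayer, then exposed 24 h at 37 °C with 0.5% DMSO vehicle. Staining was Hoechst 33342, MitoTracker Orange and calcein AM, read by high-content imaging. Point of departure came from 4-parameter logistic fits, with a 1-SD vehicle cutoff and 100 µM as the top concentration.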

[3] = 0.00 µM = 100.00, read-out: endo.mtl.18hr
[4] = 0.00 µM = 100.00, read-out: endo.tlps.18hr
[5] = 0.00 µM = 100.00, read-out: endo.tta.18hr
[6] = 0.00 µM = 100.00, read-out: endo.ttl.18hr
[7] = 0.00 µM = 100.00, read-out: endo.cyto.24hr
[8] = 0.00 µM = 100.00, read-out: endo.mito.24hr
[9] = 0.00 µM = 100.00, read-out: endo.mitoint.24hr
[10] = 0.00 µM = 100.00, read-out: endo.nma.24hr
[11] = 0.00 µM = 100.00, read-out: endo.tc.24hrs

In the case of `Clc1ccc(Cl)c(-c2c(Cl)ccc(Cl)c2Cl)c1` [PCB95], the activity at 0.01 µM [1, 3] is reported as 111%, the activity at 0.01 µM [1, 4] is reported as 84.5% and the activity at 0.01 µM [1, 5] is reported as 111%. For the same molecule, the activity at 0.01 µM [1, 6] was 116%, the activity at 0.1 µM [1, 3] was 103% and the activity at 0.1 µM [1, 4] was 85.8%. It also gave an activity at 0.1 µM [1, 5] of 99%, an activity at 0.1 µM [1, 6] of 106% and an activity at 1 µM [1, 3] of 108%. For the same molecule, the activity at 1 µM [1, 4] was 115%, the activity at 1 µM [1, 5] was 97.2% and the activity at 1 µM [1, 6] was 104%. For the same molecule, the activity at 10 µM [1, 3] was 109%, the activity at 10 µM [1, 4] was 119% and the activity at 10 µM [1, 5] was 113%. The activity at 10 µM [1, 6] was 123%, the activity at 100 µM [1, 3] was 47% and the activity at 100 µM [1, 4] was 16%. It also gave an activity at 100 µM [1, 5] of 8.76%, an activity at 100 µM [1, 6] of 11% and a minimal effective concentration ([1]; read-out: endo.mtl.18hr POD) of 48.6 µM. For the same molecule, the minimal effective concentration ([1]; read-out: endo.tlps.18hr POD) was 53.9 µM, the minimal effective concentration ([1]; read-out: endo.tta.18hr POD) was 48.7 µM and the minimal effective concentration ([1]; read-out: endo.ttl.18hr POD) was 55.7 µM. For the same molecule, the viability at 0.01 µM [2, 7] was 96.8%, the activity at 0.01 µM [2, 8] was 96.7% and the activity at 0.01 µM [2, 9] was 93.2%. The activity at 0.01 µM [2, 10] was 103%, the viability at 0.01 µM [2, 11] was 96.8% and the viability at 0.1 µM [2, 7] was 102%. The activity at 0.1 µM [2, 8] was 102%, the activity at 0.1 µM [2, 9] was 87.2% and the activity at 0.1 µM [2, 10] was 104%. The viability at 0.1 µM [2, 11] was 102%, the viability at 1 µM [2, 7] was 105% and the activity at 1 µM [2, 8] was 106%. It also gave an activity at 1 µM [2, 9] of 84.4%, an activity at 1 µM [2, 10] of 98.6% and a viability at 1 µM [2, 11] of 105%. For the same molecule, the viability at 10 µM [2, 7] was 104%, the activity at 10 µM [2, 8] was 104% and the activity at 10 µM [2, 9] was 93.9%. The activity at 10 µM [2, 10] was 100%, the viability at 10 µM [2, 11] was 104% and the viability at 100 µM [2, 7] was 102%. It also gave an activity at 100 µM [2, 8] of 103%, an activity at 100 µM [2, 9] of 93.6% and an activity at 100 µM [2, 10] of 97.4%. The viability at 100 µM [2, 11] was 102%, the minimal effective concentration ([2]; read-out: endo.cyto.24hr POD) was 100 µM and the minimal effective concentration ([2]; read-out: endo.mito.24hr POD) was 100 µM. The minimal effective concentration ([2]; read-out: endo.mitoint.24hr POD) was 100 µM, the minimal effective concentration ([2]; read-out: endo.nma.24hr POD) was 100 µM and the minimal effective concentration ([2]; read-out: endo.tc.24hrs POD) was 100 µM.
